Measured values taken from patent US20260265684A1, “EIMERIA VACCINE” (priority 2024, published 2026).

How the values were obtained:
[1] = system: Eimeria oocysts (E. acervulina, E. brunetti, E. maxima, E. mitis, E. necatrix and E. tenella); assay: Sporulation of Eimeria oocysts in different media, all species (Example 1); assay type: cell-based; conditions: for Average sporulation % across all species: 48 hours at 27° C., 150 rpm, three replicates, six species
E. acervulina oocysts = assay type: cell-based; conditions: for relative difference in oocyst counts compared to group 1 (percentage difference), R1: replicate R1, post sporulation; for relative difference in oocyst counts compared to group 1 (percentage difference), R3: replicate R3, post sporulation
E. brunetti oocysts = assay: Sporulation in different media: sporulation and post-sporulation oocyst count (Example 1); assay type: cell-based; conditions: for relative difference in oocyst counts compared to group 1 (percentage difference), R1: replicate R1, post sporulation; for relative difference in oocyst counts compared to group 1 (percentage difference), R3: replicate R3, post sporulation
E. maxima oocysts [2] = assay type: cell-based; conditions: for relative difference in oocyst counts compared to group 1 (percentage difference), R1: replicate R1, post sporulation; for relative difference in oocyst counts compared to group 1 (percentage difference), R3: replicate R3, post sporulation
E. mitis oocysts [3] = assay type: cell-based; conditions: for relative difference in oocyst counts compared to group 1 (percentage difference), R1: replicate R1, post sporulation; for relative difference in oocyst counts compared to group 1 (percentage difference), R3: replicate R3, post sporulation
E. necatrix oocysts = assay: Sporulation in different media: sporulation and post-sporulation oocyst count (Example 1); assay type: cell-based; conditions: for relative difference in oocyst counts compared to group 1 (percentage difference), R1: replicate R1, post sporulation; for relative difference in oocyst counts compared to group 1 (percentage difference), R3: replicate R3, post sporulation
E. tenella oocysts = assay type: cell-based; conditions: for relative difference in oocyst counts compared to group 1 (percentage difference), R1: replicate R1, post sporulation; for relative difference in oocyst counts compared to group 1 (percentage difference), R3: replicate R3, post sporulation
[4] = system: microorganisms other than the Eimeria; assay type: cell-based; conditions: replicate sterility averaged across the 6 species; FIG. 13
Eimeria oocysts = assay: Sporulation at variable solids content (Example 2); assay type: cell-based; conditions: 1%, 3% and 5% solids
[5] = system: microorganisms other than the Eimeria; assay type: cell-based; conditions: across 1%, 3% and 5% solids and all species
[6] = system: Candida albicans ATCC 10231; conditions: 27° C., FIG. 18A
Method: (§1) Each organism was exposed to each chemical mimicking the duration and conditions they would be used with for sporulation or sterilisation.
(§2) Organism suspensions were prepared by sub-culturing onto an appropriate growth plate and incubating under standard conditions. The growth was harvested and suspended in appropriate media. The starting titre for most organisms once inoculated into the test media was approximately ≤10^6 CFU/mL.
(§3) 0.1 mL of the harvested bacterial or fungal suspension was added to 9.9 mL of the solution being tested in a sterile glass vial (McCartney container). The inoculated solutions were incubated at 27° C. Zero hours samples were done with sterile water and not the solution being tested to determine a baseline for log reduction calculations. At the appropriate time point, 1 mL of sample was combined with 9 mL of sodium thiosulfate neutralizer (the 10:1 dilution). Serial dilutions in Peptone water (PEP) from 10^−2 to 10^−6 were plated out onto either TSA (bacterial) or SDA (fungal) plates. The 10^−1 dilution in neutraliser was also plated. Plates were incubated according to the organisms' requirements and the number of colonies counted at the end of the incubation period.

[7] = system: Pseudomonas aeruginosa ATCC 9027; conditions: 27° C.; FIG. 18A
Method: as §1, §2, §3

[8] = system: Staphylococcus aureus ATCC 6538; conditions: after the 48 hours, 27° C.; FIG. 18A
Method: as §1, §2, §3

E. maxima oocysts [9] = assay: Sporulation in 2% Proxitane with detergents, initial experiments (Example 4); assay type: cell-based
Method: (§4) The 2% Proxitane (~1000 ppm peracetic acid) sporulation media was prepared as described in Example 1. Detergents were added to the 2% Proxitane (~1000 ppm peracetic acid) solution at two concentrations: 0.05% solution and 0.5% solution. A 30% solution of Sarkosyl in 2% Proxitane (~1000 ppm peracetic acid) was prepared first before diluting to the desired concentration. Docusate dissolved in water with heat (up 90° C.) before adding the Proxitane.
(§5) Oocysts were sporulated in 15 or 50 mL tubes with at least 80% headspace (i.e. 10 mL liquid in 50 mL tube max). The amount of solids (unsporulated oocysts+debris) in this experiments was set to 2%, i.e. a solids ratio of 1:49.
(§6) All samples were incubated at 27° C. and about 150 rpm in the shaking incubator for 48 hours. Following sporulation, samples were either stored at 4-8° C. or evaluated immediately.
(§7) Sporulation level and oocyst health was evaluated as described in Example 1.

E. mitis oocysts [10] = assay: Sporulation in 2% Proxitane with anionic detergents, follow up trial (Example 4); assay type: cell-based; conditions: detergent 0.05% in 2% Proxitane; FIG. 19
Method: as §4, §5, §6, §7

| SMILES | Average sporulation % across all species [1] | relative difference in oocyst counts compared to group 1 (percentage difference), R1 (E. acervulina oocysts) | relative difference in oocyst counts compared to group 1 (percentage difference), R3 (E. acervulina oocysts) | relative difference in oocyst counts compared to group 1 (percentage difference), R1 (E. brunetti oocysts) | relative difference in oocyst counts compared to group 1 (percentage difference), R3 (E. brunetti oocysts) | relative difference in oocyst counts compared to group 1 (percentage difference), R1 (E. maxima oocysts [2]) | relative difference in oocyst counts compared to group 1 (percentage difference), R3 (E. maxima oocysts [2]) | relative difference in oocyst counts compared to group 1 (percentage difference), R1 (E. mitis oocysts [3]) | relative difference in oocyst counts compared to group 1 (percentage difference), R3 (E. mitis oocysts [3]) | relative difference in oocyst counts compared to group 1 (percentage difference), R1 (E. necatrix oocysts) | relative difference in oocyst counts compared to group 1 (percentage difference), R3 (E. necatrix oocysts) | relative difference in oocyst counts compared to group 1 (percentage difference), R1 (E. tenella oocysts) | relative difference in oocyst counts compared to group 1 (percentage difference), R3 (E. tenella oocysts) | sterility [4] | other results |
| --- | --- | --- | --- | --- | --- | --- | --- | --- | --- | --- | --- | --- | --- | --- | --- |
| O=CCCCC=O [0.2% glutaraldehyde, glutaraldehyde] | 78% | 1.31% | −1% | 3% | 91% | 3% | −3% | 8.68% | 1% | 7% | −61.49% | 3.12% | 30.08% |  |  |
| OO [0.5% hydrogen peroxide, hydrogen peroxide] | 81% | 11.16% | −298% | −13% | 92% | 5% | −13% | 29.90% | 17% | 25% | −15.15% | 17.92% | 26.75% | 80% | sporulating oocysts compared with control group 1 ([1]; averaged sporulation from 3 replicates, across all the species tested (FIGS. 7-12)): comparable to or better than control group 1; sporulation compared with dichromate (in words) (Eimeria oocysts): good sporulation compared to dichromate except with 5% solids; samples failing sterility (fail rate) [5]: 21%; reduction of titre before going back up at the last time point [6]: 4.32 logs; viability after treatment ([6]; after the 48 hours): still viable; time to inactivation [7]: within the first hour; viability after treatment [8]: still viable |
| O=S(=O)([N-]Cl)c1ccccc1.[Na+] [1% chloramine B, chloramine B] | 81% | 9.43% | −137% | −7% | 91% | −4% | −4% | 12.16% | 8% | 24% | −27.13% | −1.16% | 40.83% |  |  |
| [K+].[K+].[O]=[Cr](=[O])([O-])[O][Cr](=[O])(=[O])[O-] [2% potassium dichromate, potassium dichromate, reference compound] |  |  |  |  |  |  |  |  |  |  |  |  |  | failed to achieve sterility | sterility outcome (in words) [5]: failed to sterilise the material |
| CCCCCCCCCCCCOS(=O)(=O)[O-].[Na+] [SDS] |  |  |  |  |  |  |  |  |  |  |  |  |  |  | percent sporulation (E. maxima oocysts [9]; detergent 0.5% in 2% Proxitane, 2% solids, 48 hours): 40%; sticking of debris and oocysts (E. maxima oocysts [9]; detergent in 2% Proxitane, data not shown): reduce sticking; oocyst damage (E. maxima oocysts [9]; upon prolonged storage): cause damage to the oocyst wall |
| CCCCCCCCCCCC(=O)N(C)CC(=O)[O-].[Na+] [sarkosyl, Sarkosyl] |  |  |  |  |  |  |  |  |  |  |  |  |  |  | sticking of debris to oocyst walls (E. mitis oocysts [10]): sticking of debris to oocyst walls was found |
